Data as given in ChEMBL document CHEMBL1121707, “Synthesis of 2'-deoxy-L-fucopyranosylcarminomycinone and -epsilon-pyrromycinone as well as 2'-deoxy-D-erythro-pentopyranosyldaunomycinone, -carminomycinone, and -epsilon-pyrromycinone” (1981).

Assays:
Bacillus subtilis [1] = experiment: Tested for antibiotic activity against Bacillus subtilis-ATTCC 6633 at dose 12.5 ug/mL via plate assay; type: functional
L1210 [2] = experiment: Average weight change after administration from 1-9 days at 12.8 mg/kg intraperitoneally in BDF1 mice; type: functional, Mus musculus; settings: route intraperitoneal
L1210 [3] = experiment: Average weight change after administration from 1-9 days at 3.2 mg/kg intraperitoneally in BDF1 mice; type: functional, Mus musculus; settings: route intraperitoneal
L1210 [4] = experiment: Average weight change after administration at 6.4 mg/kg intraperitoneally in mice on day 1 in experiment 2; type: functional, Mus musculus; settings: route intraperitoneal
L1210 [5] = experiment: Average weight change after administration at 3.2 mg/kg intraperitoneally in mice on day 1 in experiment 1; type: functional, Mus musculus; settings: route intraperitoneal
Bacillus subtilis [6] = experiment: Tested for antibacterial effect against Bacillus subtilis-8 at dose 12.5 ug/mL; type: functional
Bacillus subtilis [7] = experiment: Tested for antibacterial effect against Bacillus subtilis-8 at dose 25 ug/mL; type: functional
Bacillus subtilis [8] = experiment: Tested for antibacterial effect against Bacillus subtilis-8 at dose 3.1 ug/mL; type: functional
L1210 [9] = experiment: Average weight change after administration from 1-9 days at 6.4 mg/kg intraperitoneally in BDF1 mice; type: functional, Mus musculus; settings: route intraperitoneal
L1210 [10] = experiment: Average weight change after administration at 25.6 mg/kg intraperitoneally in mice on day 1 in experiment 2; type: functional, Mus musculus; settings: route intraperitoneal
Bacillus subtilis [11] = experiment: Tested for antibacterial effect against Bacillus subtilis-8 at dose 50 ug/mL; type: functional
L1210 [12] = experiment: Average weight change after administration at 12.8 mg/kg intraperitoneally in mice on day 1 in experiment 2; type: functional, Mus musculus; settings: route intraperitoneal
L1210 [13] = experiment: Average weight change after administration at 0.8 mg/kg intraperitoneally in mice on day 1 in experiment 1; type: functional, Mus musculus; settings: route intraperitoneal
Bacillus subtilis [14] = experiment: Tested for antibacterial effect against Bacillus subtilis-8 at dose 6.25 ug/mL; type: functional
L1210 [15] = experiment: Average weight change after administration at 0.4 mg/kg intraperitoneally in mice on day 1 in experiment 1; type: functional, Mus musculus; settings: route intraperitoneal
L1210 [16] = experiment: Average weight change after administration at 51.2 mg/kg intraperitoneally in mice on day 1 in experiment 2; type: functional, Mus musculus; settings: route intraperitoneal
L1210 [17] = experiment: Average weight change after administration from 1-9 days at 0.8 mg/kg intraperitoneally in BDF1 mice; type: functional, Mus musculus; settings: route intraperitoneal
L1210 [18] = experiment: Average weight change after administration at 1.6 mg/kg intraperitoneally in mice on day 1 in experiment 1; type: functional, Mus musculus; settings: route intraperitoneal
L1210 [19] = experiment: Average weight change after administration at 3.2 mg/kg intraperitoneally in mice on day 1 in experiment 2; type: functional, Mus musculus; settings: route intraperitoneal
L1210 [20] = experiment: Average weight change after administration from 1-9 days at 1.6 mg/kg intraperitoneally in BDF1 mice; type: functional, Mus musculus; settings: route intraperitoneal
L1210 [21] = experiment: Average weight change after administration at 6.4 mg/kg intraperitoneally in mice on day 1 in experiment 1; type: functional, Mus musculus; settings: route intraperitoneal
L1210 [22] = experiment: Average weight change after administration from 1-9 days at 0.4 mg/kg intraperitoneally in BDF1 mice; type: functional, Mus musculus; settings: route intraperitoneal
L1210 [23] = experiment: Average weight change after administration at 12.8 mg/kg intraperitoneally in mice on day 1 in experiment 1; type: functional, Mus musculus; settings: route intraperitoneal
L1210 [24] = experiment: Average weight change after administration at 1.6 mg/kg intraperitoneally in mice on day 1 in experiment 2; type: functional, Mus musculus; settings: route intraperitoneal

SMILES: CC(=O)[C@]1(O)Cc2c(O)c3c(c(O)c2C(O)C1)C(=O)c1c(O)cccc1C3=O (some centres undefined) [CARMINOMYCINONE]
- Inhibition zone (Bacillus subtilis [1]): 20.2 mm

SMILES: CC(=O)[C@]1(O)Cc2c(O)c3c(c(O)c2[C@@H](O[C@H]2C[C@H](O)[C@H](O)[C@H](C)O2)C1)C(=O)c1c(O)cccc1C3=O
- Average weight change (L1210 [2]): -1.6
- Average weight change (L1210 [3]): -0.3
- Average weight change (L1210 [4]): 0.7
- Average weight change (L1210 [5]): -0.9
- Inhibition zone (Bacillus subtilis [6]): 21.3 mm
- Inhibition zone (Bacillus subtilis [7]): 21.5 mm
- Inhibition zone (Bacillus subtilis [8]): 17.2 mm
- Average weight change (L1210 [9]): 2.4
- Average weight change (L1210 [10]): -1.2
- Inhibition zone (Bacillus subtilis [11]): 21.5 mm
- Average weight change (L1210 [12]): 0.3
- Average weight change (L1210 [13]): 1.2
- Inhibition zone (Bacillus subtilis [14]): 19.5 mm
- Average weight change (L1210 [15]): -0.8
- Average weight change (L1210 [16]): -1.9
- Average weight change (L1210 [17]): 2.3
- Average weight change (L1210 [18]): -0.8
- Average weight change (L1210 [19]): 0.2
- Average weight change (L1210 [20]): 0.6
- Average weight change (L1210 [21]): -1.1
- Average weight change (L1210 [22]): 0.6
- Average weight change (L1210 [23]): -0.4
- Average weight change (L1210 [24]): -0.6
